Data from patent publication US20260008746A1, “CATIONIC LIPID COMPOUND WITH HIGH EFFICIENCY, LOW TOXICITY AND STABLE EXPRESSION, AND COMPOSITION COMPRISNG SAME” (HANGZHOU TIANLONG PHARMACEUTICAL CO., LTD, priority 2023, published 2026).

Key:
[1] = Determination of particle size and polydispersity index (PDI) of lipid nanoparticles by dynamic light scattering; assay type: physicochemical; conditions: LNP formulation of named cationic lipid/DSPC/cholesterol/DMG-PEG2000 49:10:39.5:1.5; for Particle size (nm): 90° scattering angle, 25° C
Experimental: The cationic lipids listed in Table 1 were dissolved in ethanol with DSPC (AVT (Shanghai) Pharmaceutical Technology Co., Ltd.), cholesterol (AVT (Shanghai) Pharmaceutical Technology Co., Ltd.) and DMG-PEG2000 according to a molar ratio of 49:10:39.5:1.5, respectively, to prepare lipid solution in ethanol. The lipid solution in ethanol was quickly added to citrate buffer (pH=4 to 5) by ethanol injection method, and vortexed for 30 s for later use. eGFP-mRNA (from Shanghai Biohub International Trade Co., Ltd) or Fluc-mRNA (from Shanghai Biohub International Trade Co., Ltd) was diluted in citrate buffer (pH=4 to 5) to give an aqueous mRNA solution. A certain volume of liposome solution and mRNA aqueous solution were used to prepare liposomes at a weight ratio of total lipids to mRNA of 15:1. The mixtures were sonicated at 25° C. for 15 min (with an ultrasonic frequency of 40 kHz and an ultrasonic power of 800 W). The resulting liposomes were diluted to 10 times volume with PBS, and then ultrafiltered with a 300 KDa ultrafiltration tube to remove ethanol. Then the volume was fixed to a certain volume with PBS to give an LNP formulation encapsulating eGFP-mRNA or Fluc-mRNA using cationic lipid/DSPC/cholesterol/DMG-PEG2000 (49:10:39.5:1.5 in molar percentage).
The particle size and polydispersity index (PDI) were determined by dynamic light scattering using Malvern laser particle size analyzer.
10 μL of the liposome solution was weighed, diluted to 1 mL with RNase-free deionized water, and added to the sample pool. Each sample was measured in triplicate. The measurement conditions were: 90° scattering angle, and 25° C.

[2] = test system: 293T cells; assay: Cell survival rate determination (CCK-8); assay type: cell-based; conditions: for Cell survival rate (%): LNP formulation containing 1.5 μg Fluc-mRNA, 24 hours, CCK-8, absorbance at 450 nm; for cell survival rate lower than that of YK-101: cell survival rate of YK-101 minus that of named substance; for cell survival rate lower than that of YK-107: cell survival rate of YK-107 minus that of named substance; for cell survival rate lower than that of YK-108: cell survival rate of YK-108 minus that of named substance
Experimental: (§1) Cell recovery and passage: 293T cells were recovered, cultured in a culture dish, and passaged to the required number of cells.
(§2) Seeding plate: The cells in the culture dish were digested and counted. Cells were spread in a 96-well plate at 10,000 cells per well and in a 12-well plate at 150,000 cells per well. Cells were cultured overnight until the cells adhered to the wall.
An LNP formulation containing 1.5 μg of Fluc-mRNA (the cater component of the LNP formulation were cationic lipid, neutral lipid, structured lipid and polymer-conjugated lipid with a molar ratio of 49: 10: 39.5: 1.5, wherein the cationic lipid was listed in Table 1) and the formulation of Lipofectamine 3000 were added to the cell culture medium of a 96-well plate, and further cultivated for 24 hours. 10 μL of CCK-8 solution was then added to each well, and the culture plate was incubated in an incubator for 1 hour. The absorbance at 450 nm was measured by a microplate reader.

[3] = test system: 293T cells; assay: Fluorescent detection of Fluc-mRNA (cell transfection efficiency of LNP formulations); assay type: cell-based; conditions: for Relative light unit (RLU): LNP formulation containing 0.3 μg Fluc-mRNA, 96-well plate, 24 hours; for Multiples (YK-107): RLU of YK-107 / RLU of named substance; for fluorescence absorption value, times that of HHMA: RLU of named substance / RLU of HHMA; for fluorescence absorption value, times that of Lipofectamine 3000: RLU of named substance / RLU of Lipofectamine 3000; for Ratio relative to SM-102: RLU of named substance / RLU of SM-102; for Fluc-mRNA expression signal intensity, times that of compound 21: RLU of named substance / RLU of compound 21; for fluorescence absorption value, times that of compound 23: RLU of named substance / RLU of compound 23; for difference from SM-102 in Fluc-mRNA fluorescence (GraphPad Prism analysis): statistical comparison with SM-102; for Multiples (YK-101): RLU of YK-101 / RLU of named substance; for Multiples (YK-108): RLU of YK-108 / RLU of named substance
Experimental: as §1, §2
Cell recovery and passage: the method was the same as in Example 3.
Seeding plate: the method was the same as in Example 3.
An LNP formulation containing 0.3 μg of Fluc-mRNA (the carrier components of the LNP formulation were cationic lipid, neutral lipid, structured lipid and polymer-conjugated lipid with a molar ratio of 49:10:39.5:1.5, wherein the cationic lipid was listed in Table 1) was added to the cell culture medium of a 96-well plate, and further incubated for 24 hours. The corresponding reagent was added according to the instructions of the Gaussia Luciferase Assay Kit, and the fluorescence expression intensity of each well was detected by an IVIS fluorescence detection system. This test verified the transfection efficiencies of LNP formulations in cells, see Tables 3-6 for specific test results.

## CCCCCCCCCCOC(=O)CCCN(CCCCCC(=O)OCCC(CCCCCC)CCCCCC)CCOCCOCCO [YK-121, 3-hexylnonyl 6-(4-(decyloxy)-4-oxobutyl)(2-(2-(2-hydroxyethoxy)ethoxy-ethyl)amino)hexanoate]
[1]
  PDI(%): 25.1%
  Particle size (nm): 192 nm
[2]
  Cell survival rate (%): 73.11%
  cell survival rate lower than that of YK-101: 17.01%
  cell survival rate lower than that of YK-107: 17.34%
  cell survival rate lower than that of YK-108: 16.75%
[3]
  Relative light unit (RLU): 427603 RLU
  Multiples (YK-107): 52.29
  fluorescence absorption value, times that of HHMA: 0.21 times
  fluorescence absorption value, times that of Lipofectamine 3000: 0.40 times
  Ratio relative to SM-102: 0.28
  Fluc-mRNA expression signal intensity, times that of compound 21: 0.31 times
  fluorescence absorption value, times that of compound 23: 0.33 times
  difference from SM-102 in Fluc-mRNA fluorescence (GraphPad Prism analysis): significant difference

## CCCCCCCCCCOC(=O)CCCN(CCCCCC(=O)OCCC(CCCCCC)CCCCCC)C[C@@H](O)CO [YK-115]
[1]
  PDI(%): 21.8%
  Particle size (nm): 167 nm
[2]
  Cell survival rate (%): 59.07%
  cell survival rate lower than that of YK-101: 31.05%
  cell survival rate lower than that of YK-107: 31.38%
  cell survival rate lower than that of YK-108: 30.79%
[3]
  Relative light unit (RLU): 1427501 RLU
  Multiples (YK-101): 14.25
  Multiples (YK-107): 15.66
  Multiples (YK-108): 17.28
  fluorescence absorption value, times that of HHMA: 0.70 times
  fluorescence absorption value, times that of Lipofectamine 3000: 1.33 times
  Ratio relative to SM-102: 0.93
  Fluc-mRNA expression signal intensity, times that of compound 21: 1.03 times
  fluorescence absorption value, times that of compound 23: 1.11 times

## CCCCCCCCCCOC(=O)CCCN(CCCCCC(=O)OCCC(CCCCCC)CCCCCC)CCOC(=O)CCCN(C)C [YK-125]
[1]
  PDI(%): 26.4%
  Particle size (nm): 220 nm
[2]
  Cell survival rate (%): 35.39%
  cell survival rate lower than that of YK-101: 54.73%
  cell survival rate lower than that of YK-107: 55.06%
  cell survival rate lower than that of YK-108: 54.47%
[3]
  Relative light unit (RLU): 169824 RLU
  Multiples (YK-107): 131.67
  fluorescence absorption value, times that of HHMA: 0.08 times
  fluorescence absorption value, times that of Lipofectamine 3000: 0.16 times
  Ratio relative to SM-102: 0.11
  Fluc-mRNA expression signal intensity, times that of compound 21: 0.12 times
  fluorescence absorption value, times that of compound 23: 0.13 times
  difference from SM-102 in Fluc-mRNA fluorescence (GraphPad Prism analysis): significant difference

## CCCCCCCCCCOC(=O)CCCN(CCO)CCCCCCOC(=O)CC(CCCCCC)CCCCCC [YK-105]
[1]
  PDI(%): 18.6%
  Particle size (nm): 109 nm
[2]
  Cell survival rate (%): 78.58%
  cell survival rate lower than that of YK-101: 11.54%
  cell survival rate lower than that of YK-107: 11.87%
  cell survival rate lower than that of YK-108: 11.28%
[3]
  Relative light unit (RLU): 1593805 RLU
  Multiples (YK-101): 12.76
  Multiples (YK-107): 14.03
  Multiples (YK-108): 15.47
  Ratio relative to SM-102: 1.04
  difference from SM-102 in Fluc-mRNA fluorescence (GraphPad Prism analysis): no significant difference

## CCCCCCCCCCOC(=O)CCCCCN(CCO)CCCCCC(=O)OCCC(CCCCCC)CCCCCC [YK-103, 3-hexylnonyl-6-((6-(decyloxy)-6-oxohexyl)(2-hydroxyethyl)amino)hexanoate]
[1]
  PDI(%): 21.5%
  Particle size (nm): 179 nm
[2]
  Cell survival rate (%): 45.25%
  cell survival rate lower than that of YK-101: 44.87%
  cell survival rate lower than that of YK-107: 45.20%
  cell survival rate lower than that of YK-108: 44.61%
[3]
  cell transfection activity, times that of YK-109: 3.2 times
  Relative light unit (RLU): 2312883 RLU
  Multiples (YK-101): 8.79
  Multiples (YK-107): 9.67
  Multiples (YK-108): 10.66
  Ratio relative to SM-102: 1.51
  difference from SM-102 in Fluc-mRNA fluorescence (GraphPad Prism analysis): no significant difference

## CCCCCCCCCCOC(=O)CCCN(CCCCCC(=O)OCC(CCCCCCCC)CCCCCCCC)CCOCCO [YK-124, 2-octyldecyl 6-(4-(decyloxy)-4-oxobutyl)(2-(2-hydroxyethoxy-ethyl)amino)hexanoate]
[1]
  PDI(%): 14.7%
  Particle size (nm): 216 nm
[2]
  Cell survival rate (%): 77.56%
  cell survival rate lower than that of YK-101: 12.56%
  cell survival rate lower than that of YK-107: 12.89%
  cell survival rate lower than that of YK-108: 12.30%
[3]
  Relative light unit (RLU): 81596 RLU
  fluorescence absorption value, times that of HHMA: 0.04 times
  fluorescence absorption value, times that of Lipofectamine 3000: 0.08 times
  Ratio relative to SM-102: 0.05
  Fluc-mRNA expression signal intensity, times that of compound 21: 0.06 times
  fluorescence absorption value, times that of compound 23: 0.06 times
  difference from SM-102 in Fluc-mRNA fluorescence (GraphPad Prism analysis): significant difference

## CCCCCCCCCCOC(=O)CCCN(CCCCCC(=O)OCC(CCCCCCCC)CCCCCCCC)CCOCCOCCO [YK-122, 2-octyldecyl 6-(4-(decyloxy)-4-oxobutyl)(2-(2-(2-hydroxyethoxy)ethoxy-ethyl)amino)hexanoate]
[1]
  PDI(%): 7.7%
  Particle size (nm): 205 nm
[2]
  Cell survival rate (%): 79.15%
  cell survival rate lower than that of YK-101: 10.97%
  cell survival rate lower than that of YK-107: 11.30%
  cell survival rate lower than that of YK-108: 10.71%
[3]
  cell transfection efficiency, times that of YK-121: 3.3 times
  Relative light unit (RLU): 1418705 RLU
  Multiples (YK-101): 14.33
  Multiples (YK-107): 15.76
  Multiples (YK-108): 17.38
  fluorescence absorption value, times that of HHMA: 0.69 times
  fluorescence absorption value, times that of Lipofectamine 3000: 1.32 times
  Ratio relative to SM-102: 0.92
  Fluc-mRNA expression signal intensity, times that of compound 21: 1.02 times
  fluorescence absorption value, times that of compound 23: 1.10 times
  difference from SM-102 in Fluc-mRNA fluorescence (GraphPad Prism analysis): no significant difference
